Laboratory results as given in patent publication US20100056526A1, “HETEROMONOCYCLIC COMPOUND AND USE THEREOF” (Takeda Pharmaceutical Company Limited, priority 2006, published 2010).

What was measured:
human AT1 receptor = target: T1, human AT1 receptor (Homo sapiens, UniProt P30556); assay: Binding assay using human AT1 receptor-expressing CHO-K1 cell membrane fraction ([125I]-angiotensin II); conditions: 22.5 pM [125I]-angiotensin II, 9 μg AT1 membrane, 1 hr room temperature; read-out: AT1 receptor binding inhibitory action (IC50 (nM))
T1 construct: expressed in transfected cells; host or cells: CHO-K1
T1 sequence (P30556 1-359): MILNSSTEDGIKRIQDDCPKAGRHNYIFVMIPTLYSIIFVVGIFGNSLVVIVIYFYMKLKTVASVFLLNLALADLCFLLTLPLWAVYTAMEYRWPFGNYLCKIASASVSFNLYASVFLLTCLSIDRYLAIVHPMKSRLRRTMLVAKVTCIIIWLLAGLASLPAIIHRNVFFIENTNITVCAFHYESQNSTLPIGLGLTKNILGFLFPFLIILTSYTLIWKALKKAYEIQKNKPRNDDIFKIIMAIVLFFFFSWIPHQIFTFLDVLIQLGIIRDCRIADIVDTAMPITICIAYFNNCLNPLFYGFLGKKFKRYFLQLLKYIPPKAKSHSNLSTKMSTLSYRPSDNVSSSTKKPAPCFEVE
Outline: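 Radioligand displacement: test compound competed with [125I]-angiotensin II (22.5 pM) on stable CHO-K1 AT1 membrane fraction, 1 hr, room temperature, Tris pH 7.4/MgCl2 buffer ± 0.3 mg/mL BSA. Filtration then scintillation counting; 1 μM CV-11974 defined nonspecific binding. Values are IC50s.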

PPARγ = target: T2, PPARγ (Homo sapiens, UniProt P37231); assay: Evaluation of PPARγ activating action (luciferase reporter in PPARγ:RXRα:4ERPP/CHO-K1 cells); assay type: cell-based; conditions: CHO-K1, 24 h; test compound 10^−6 M; luciferase activity relative to control compound X (1 μM) = 100%, non-administration group = 0%; read-out: PPARγ activating action (activation % (10^−6 M))
T2 construct: expressed in transfected cells; host or cells: CHO-K1
T2 sequence (P37231 1-477 isoform P37231-2): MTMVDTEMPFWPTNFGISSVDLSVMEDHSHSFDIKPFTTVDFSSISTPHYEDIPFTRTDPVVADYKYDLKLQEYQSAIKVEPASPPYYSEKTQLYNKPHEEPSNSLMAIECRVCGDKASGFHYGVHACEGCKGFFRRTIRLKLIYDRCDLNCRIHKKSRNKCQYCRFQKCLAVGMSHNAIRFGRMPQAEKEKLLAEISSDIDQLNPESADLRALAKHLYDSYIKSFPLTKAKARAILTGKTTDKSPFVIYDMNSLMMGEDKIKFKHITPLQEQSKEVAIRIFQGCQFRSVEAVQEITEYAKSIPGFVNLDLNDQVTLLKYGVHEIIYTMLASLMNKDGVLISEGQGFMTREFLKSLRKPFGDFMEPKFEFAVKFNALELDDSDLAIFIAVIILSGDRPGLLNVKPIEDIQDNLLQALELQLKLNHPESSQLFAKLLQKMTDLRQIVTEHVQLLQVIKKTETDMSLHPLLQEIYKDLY
T2 sequence (P19793 1-462 partner): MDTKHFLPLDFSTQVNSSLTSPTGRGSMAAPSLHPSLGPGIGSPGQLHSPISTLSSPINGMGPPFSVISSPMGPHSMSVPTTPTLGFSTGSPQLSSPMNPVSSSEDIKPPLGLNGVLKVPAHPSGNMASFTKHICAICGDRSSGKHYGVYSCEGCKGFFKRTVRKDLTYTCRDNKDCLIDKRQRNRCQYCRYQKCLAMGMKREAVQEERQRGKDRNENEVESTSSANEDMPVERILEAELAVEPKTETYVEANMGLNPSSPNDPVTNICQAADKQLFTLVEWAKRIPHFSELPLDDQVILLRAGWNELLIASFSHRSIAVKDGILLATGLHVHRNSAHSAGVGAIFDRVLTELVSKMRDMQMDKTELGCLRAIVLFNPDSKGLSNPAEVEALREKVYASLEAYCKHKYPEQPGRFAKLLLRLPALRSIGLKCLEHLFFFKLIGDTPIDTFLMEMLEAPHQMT
Outline: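 Activity is expressed as percent, where vehicle gives 0% and 1 μM compound X gives 100%, based on luciferase luminescence. Reporter CHO-K1 cells co-expressing PPARγ:RXRα with a 4ERPP-driven luciferase were incubated with test compound for one day at 37 °C in medium with 0.1% fatty acid-free BSA.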

Compound	IC50 (human AT1 receptor)	activation at 1 µM (PPARγ)
C#CCC(C)Oc1ccc(-n2c(C)nc(CCC)c(Cc3ccc(-c4ccccc4-c4noc(=O)[nH]4)cc3)c2=O)cc1 (stereo not drawn) [Example 324, 2-methyl-3-{4-[(1-methylbut-3-yn-1-yl)oxy]phenyl}-5-{[2′-(5-oxo-4,5-dihydro-1,2,4-oxadiazol-3-yl)biphenyl-4-yl]methyl}-6-propylpyrimidin-4(3H)-one]	1.7 nM	45.2%
CCCc1nc(C)n(-c2ccc(OC(C)C)nc2)c(=O)c1Cc1ccc(-c2ccccc2-c2noc(=O)[nH]2)cc1 [Example 325, 3-(6-isopropoxypyridin-3-yl)-2-methyl-5-{[2′-(5-oxo-4,5-dihydro-1,2,4-oxadiazol-3-yl)biphenyl-4-yl]methyl}-6-propylpyrimidin-4(3H)-one]	3.4 nM	30.2%
CCCc1nc(C)n(-c2ccc(OC(C)C#N)cc2)c(=O)c1Cc1ccc(-c2ccccc2-c2noc(=O)[nH]2)cc1 (stereo not drawn) [Example 327, 2-{4-[2-methyl-6-oxo-5-{[2′-(5-oxo-4,5-dihydro-1,2,4-oxadiazol-3-yl)biphenyl-4-yl]methyl}-4-propylpyrimidin-1(6H)-yl]phenoxy}propanenitrile]	2.2 nM	22.6%
CCCc1nc(C)n(-c2ccc(O[C@@H]3C[C@@H](C)O[C@@H](C)C3)cc2)c(=O)c1Cc1ccc(-c2ccccc2-c2noc(=O)[nH]2)cc1F [Example 338, 3-(4-{[(2R,4s,6S)-2,6-dimethyltetrahydro-2H-pyran-4-yl]oxy}phenyl)-5-{[3-fluoro-2′-(5-oxo-4,5-dihydro-1,2,4-oxadiazol-3-yl)biphenyl-4-yl]methyl}-2-methyl-6-propylpyrimidin-4(3H)-one]	1.8 nM	32.5%
CCCc1nc(C)n(-c2ccc(OC3CCC(O)CC3)cc2)c(=O)c1Cc1ccc(-c2ccccc2-c2noc(O)n2)cc1F (stereo not drawn) [Example 343, 5-{[3-fluoro-2′-(5-oxo-4,5-dihydro-1,2,4-oxadiazol-3-yl)biphenyl-4-yl]methyl}-3-{4-[(4-hydroxycyclohexyl)oxy]phenyl}-2-methyl-6-propylpyrimidin-4(3H)-one]	0.7 nM	15.2%
CCCc1nc(C)n(-c2ccc(OC3CCC(=O)CC3)cc2)c(=O)c1Cc1ccc(-c2ccccc2-c2noc(O)n2)cc1F [Example 346, 5-{[3-fluoro-2′-(5-oxo-4,5-dihydro-1,2,4-oxadiazol-3-yl)biphenyl-4-yl]methyl}-2-methyl-3-{4-[(4-oxocyclohexyl)oxy]phenyl}-6-propylpyrimidin-4(3H)-one]	1 nM	21.8%
CCCc1nc(C)n(-c2ccc(OC3CCC(=O)C(C)C3)cc2)c(=O)c1Cc1ccc(-c2ccccc2-c2noc(O)n2)cc1 (stereo not drawn) [Example 356, 2-methyl-3-{4-[(3-methyl-4-oxocyclohexyl)oxy]phenyl}-5-{[2′-(5-oxo-4,5-dihydro-1,2,4-oxadiazol-3-yl)biphenyl-4-yl]methyl}-6-propylpyrimidin-4(3H)-one]	1.1 nM	16.6%
CCCc1nc(CC)n(-c2ccc(OC(C)(C)C)cc2)c(=O)c1Cc1ccc(-c2ccccc2-c2noc(=O)[nH]2)cc1 [Example 364, 3-(4-tert-butoxyphenyl)-2-ethyl-5-{[2′-(5-oxo-4,5-dihydro-1,2,4-oxadiazol-3-yl)biphenyl-4-yl]methyl}-6-propylpyrimidin-4(3H)-one]	1.9 nM	32.6%
CCCc1nc(OC)n(-c2ccc(OC(C)C)cc2)c(=O)c1Cc1ccc(-c2ccccc2-c2noc(O)n2)cc1 [Example 368, 3-(4-isopropoxyphenyl)-2-methoxy-5-{[2′-(5-oxo-4,5-dihydro-1,2,4-oxadiazol-3-yl)biphenyl-4-yl]methyl}-6-propylpyrimidin-4(3H)-one]	2 nM	50.2%
CCCc1nc(OC)n(-c2ccc(OC(C)(C)C)cc2)c(=O)c1Cc1ccc(-c2ccccc2-c2noc(O)n2)cc1 [Example 369, 3-(4-tert-butoxyphenyl)-2-methoxy-5-{[2′-(5-oxo-4,5-dihydro-1,2,4-oxadiazol-3-yl)biphenyl-4-yl]methyl}-6-propylpyrimidin-4(3H)-one]	1.9 nM	36.3%
CCCc1nc(CC)n(-c2ccc(OC3CCOCC3)cc2)c(=O)c1Cc1ccc(-c2ccccc2-c2noc(=O)[nH]2)cc1 [Example 378, 2-ethyl-5-{[2′-(5-oxo-4,5-dihydro-1,2,4-oxadiazol-3-yl)biphenyl-4-yl]methyl}-6-propyl-3-[4-(tetrahydro-2H-pyran-4-yloxy)phenyl]pyrimidin-4(3H)-one]	1.5 nM	46.9%
CCCc1nc(C)n(OC2CCOCC2)c(=O)c1Cc1ccc(-c2ccccc2-c2noc(=O)[nH]2)cc1 [Example 379, 2-methyl-5-{[2′-(5-oxo-4,5-dihydro-1,2,4-oxadiazol-3-yl)biphenyl-4-yl]methyl}-6-propyl-3-(tetrahydro-2H-pyran-4-yloxy)pyrimidin-4(3H)-one]	3.4 nM	31%

Other lines, results leading:

IC50 (human AT1 receptor)	activation at 1 µM (PPARγ)	Compound
2.4 nM	58.7%	CCCc1nc(CC)n(-c2ccc(OC(C)C)cc2)c(=O)c1Cc1ccc(-c2ccccc2-c2noc(=O)[nH]2)cc1 [Example 362, 2-ethyl-3-(4-isopropoxyphenyl)-5-{[2′-(5-oxo-4,5-dihydro-1,2,4-oxadiazol-3-yl)biphenyl-4-yl]methyl}-6-propylpyrimidin-4(3H)-one]
2.1 nM	53.7%	CCCc1nc(CC)n(-c2ccc(OC(C)C)c(F)c2)c(=O)c1Cc1ccc(-c2ccccc2-c2noc(=O)[nH]2)cc1 [Example 363, 2-ethyl-3-(3-fluoro-4-isopropoxyphenyl)-5-{[2′-(5-oxo-4,5-dihydro-1,2,4-oxadiazol-3-yl)biphenyl-4-yl]methyl}-6-propylpyrimidin-4(3H)-one]
1.8 nM	25.3%	CCCc1nc(CC)n(-c2cccc(C(C)(C)O)c2)c(=O)c1Cc1ccc(-c2ccccc2-c2noc(=O)[nH]2)cc1 [Example 365, 2-ethyl-3-[3-(1-hydroxy-1-methylethyl)phenyl]-5-{[2′-(5-oxo-4,5-dihydro-1,2,4-oxadiazol-3-yl)biphenyl-4-yl]methyl}-6-propylpyrimidin-4(3H)-one]
2.4 nM	48.4%	CCCc1nc(CC)n(-c2ccc(OC(C)C)nc2)c(=O)c1Cc1ccc(-c2ccccc2-c2noc(=O)[nH]2)cc1 [Example 373, 2-ethyl-3-(6-isopropoxypyridin-3-yl)-5-{[2′-(5-oxo-4,5-dihydro-1,2,4-oxadiazol-3-yl)biphenyl-4-yl]methyl}-6-propylpyrimidin-4(3H)-one]
1.7 nM	22%	CCCc1nc(CC)n(-c2ccc(OC(C)(C)COC)cc2)c(=O)c1Cc1ccc(-c2ccccc2-c2noc(=O)[nH]2)cc1 [Example 376, 2-ethyl-3-[4-(2-methoxy-1,1-dimethylethoxy)phenyl]-5-{[2′-(5-oxo-4,5-dihydro-1,2,4-oxadiazol-3-yl)biphenyl-4-yl]methyl}-6-propylpyrimidin-4(3H)-one]
1.5 nM	30.3%	CCCc1nc(CC)n(-c2ccc(OC(C)(C)CO)cc2)c(=O)c1Cc1ccc(-c2ccccc2-c2noc(=O)[nH]2)cc1 [Example 377, 2-ethyl-3-[4-(2-hydroxy-1,1-dimethylethoxy)phenyl]-5-{[2′-(5-oxo-4,5-dihydro-1,2,4-oxadiazol-3-yl)biphenyl-4-yl]methyl}-6-propylpyrimidin-4(3H)-one]
